According to the NIST ThermoML archive (doi:10.1021/je101180r):
Numbers after ± are expanded uncertainties.

Settings: Liquid, Ebulliometric method (Recirculating still)

vapor or sublimation pressure (402.57 K) [kPa] | vapor or sublimation pressure (413.74 K) [kPa] | Structure (SMILES) | vapor or sublimation pressure (373.7 K) [kPa] | vapor or sublimation pressure (384.96 K) [kPa]
5.158 ± 0.11 | 8.041 ± 0.18 | Cc1cccnc1N [2-amino-3-methylpyridine] | – | –
– | – | CN(C)c1ccccc1 [N,N-dimethylaniline] | 5.158 ± 0.11 | 8.041 ± 0.18
